Measurements published in patent US20230321043A1, “COMPOUNDS HAVING PSEUDOMONAS ANTI-BIOFILM PROPERTIES” (Københavns Universitet, priority 2020, published 2023).

What was measured:
[1] = test system: c-di-GMP level of P. aeruginosa ΔwspFΔpelΔpsl/pCdrA-gfp; experiment: microbe, parasite or virus in culture; format: cell-based, Pseudomonas aeruginosa
Protocol: The ΔwspF mutant overproduces c-di-GMP and the ΔpelΔpsl mutations renders the bacteria deficient in exopolysaccharide production, which keeps the growing bacteria in the planktonic mode.
The reduction of total cellular c-di-GMP level was determined as follows. To evaluate the impact of the various compounds on the c-di-GMP level of P. aeruginosa ΔwspFΔpelΔpsl/pCdrA-gfp, 20 hour old cultures of the strain were diluted 100 fold in microtiter plate wells (Nunc) containing […] aliquots of ABTrace medium supplemented with 0.2% glucose, 0.5% casamino acids, 60 μg/ml gentamicin, 1 μM FeCl3, 1% DMSO, and concentrations of compounds as indicated.
Subsequently the microtiter plates were incubated at 37° C. and 440 RPM in a TECAN reader (Infinite F200 PRO), and corresponding values of cell density (OD600) and GFP fluorescence were measured every 20 minutes for 24 hours. The reduction values indicated in the tables are calculated as fluorescence values divided by optical density at a time point where this value reached a plateau.
The resulting microtiter trays were incubated at 37° C. at 440 RPM in a TECAN reader (Infinite F200 PRO), and corresponding values of GFP flourescence (FU) and cell density (OD600) were measured every 20 minutes for 24 hours. […] In FIG. 3A and 3B, means and standard deviations (bars) represents 3 biological replicates (n=3).

[2] = test system: P. aeruginosa ΔwspFΔpelΔpsl; experiment: growth (OD600) of treated cultures; format: cell-based, Pseudomonas aeruginosa; details: 0 to 100 μM, 24 hours, FIG. 3B
Protocol: Specifically, a 20 h old culture of P. aeruginosa ΔwspF,Δpsl,Δpel (Rybtke et al 2012) was diluted 100 fold into 25 mL aliquots of ABtrace media supplemented with 0.5% Cas amino acids, 0.2% glucose, 60 μg/mL of gentamicin, 1 μM FeCl3, 0.05% DMSO and either 100 μM H6-335-P1, 100 μM H6-335 or no compound as reference control. Acting as a positive control for low total cellular c-di-GMP content, a 20 hour old culture of strain P. aeruginosa ΔwspF,Δpsl,Δpel carrying plasmid pYhj::Gm (encoding a constitutively expressed YhjH phosphodiesterase) was also diluted 100 fold into 25 mL of ABtrace medium supplemented with 0.5% Cas amino acids, 0.2% glucose, 60 μg/mL of gentamicin, 1 μM FeCl3 and 0.05% DMSO. The 4 cultures were placed on a rotary shaker and following 8 hours of growth at 37° C. and 200 RPM culture samples for c-di-GMP extraction and protein quantification was collected from each of the 4 different cultures. C-di-GMP extracts were prepared and subsequently quantified by HPLC coupled tandem-MS analysis as previously described (Groizeleau et al., 2016), while protein quantification was carried out using the Pierce 660 nm Protein Assay (Thermo Scientific Cat. No 22660) according to the manufacturer's protocol. […]

[3] = test system: P. aeruginosa mPA01 wt and PDE mutants incl. PA4367 (bifA); experiment: dispersal of biofilms of PDE transposon mutants, crystal violet; format: cell-based, Pseudomonas aeruginosa; details: 18 hours old biofilm, two hours of treatment, FIG. 6A
Protocol: The inventors obtained mutants of all P. aeruginosa PDEs from the Washington P. aeruginosa mPAO1 transposon mutant library and investigated the ability of H6-335-P1 to disperse biofilms formed by each of these mutants in microtiter trays. […]
The resulting cultures were incubated at 37° C. on a rotary shaker (160 RPM) and biofilms were grown for 18 hours, at which time point either 2 μL of a 5 mM H6-335-P1 in 50% DMSO (+) or 2 μL of 50% DMSO (−) were added to each well. After two subsequent hours of growth, the culture supernatants were discarded and the amounts of biofilm present in the wells were quantified by crystal violet (CV) staining (Groizeleau et al., 2016).
The amounts of biofilm prevailing after two hours of treatments were determined for the wt strain mPA01 and each of the PDE mutants. […]

Escherichia coli = experiment: biofilm formation / dispersal, host range; format: cell-based; details: data not shown
[4] = solubility in aqueous media; details: aqueous media

N=C1NN=C(N)/C1=N/Nc1ccccc1F [H6-335-P1, 4-[(2-fluorophenyl) hydrazinylidene]pyrazole-3,5-diamine]
reduction of the fluorescence output of the c-di-GMP monitor cultures ([1]; 100 μM, compared with control cultures with 1% DMSO): 80%
inhibition at 100 µM ([1]; Pseudomonas aeruginosa, read-out: Reduction of total cellular c-di-GMP level): 80%
effect on growth (OD600) [2]: does not inhibit growth
induced dispersal of biofilm of the bifA mutant (PA4367) [3]: did not respond to H6-335-P1 induced dispersal
induced dispersal of biofilms of P. aeruginosa wt and all the remaining PDE mutants [3]: dispersed in response to H6-335-P1 exposure
biofilm formation of Escherichia coli (Escherichia coli): failed to reduce biofilm formation
solubility [4]: < 2 µM
